The test system of one experiment is p75. Put plainly: p75 expression in urothelium of SCI model, RT-PCR and Western blot. In kind it is in vivo, Sprague-Dawley rats. The conditions noted are these: after SCI. (In general: In western blotting, separated proteins are transferred to a membrane and probed.)
Experiment [1] relates to urothelium (TUNEL-positive cells). Kind of experiment: Urothelial cell apoptosis in SCI model, TUNEL staining. In kind it is in vivo, Sprague-Dawley rats. The following applies: day 3 after SCI; vs Vehicle.
The next experiment has as its system bladder wall. Kind of experiment: Bladder hypertrophy (bladder wall thickness, H&E) in SCI model. In kind it is in vivo, Sprague-Dawley rats. The conditions noted are these: 5 mg/kg i.p., day 1 after SCI.
Experiment [2] relates to inflammatory cytokines and chemokines in bladder tissue. Put plainly: Inflammatory factor expression in bladder of SCI model, RT-PCR and Western blot. In kind it is in vivo, Sprague-Dawley rats. The conditions noted are these: bladder after SCI. On the procedure:
In order to confirm the effect of YJ102 (Chemical Formula 1), a compound of the present disclosure, on urinary disturbances caused by spinal cord injury, immediately after preparing the traumatic spinal cord injury (SCI) model (FIG. 1A) prepared in Example 1 above, YJ102 was dissolved in DMSO, methyl pyrrolidinone, and water (1:1.5:1) and administered intraperitoneally at 5 mg/kg, and then intraperitoneally administered at 24-hour intervals for 7 days from the next day. Thereafter, the effect of improving bladder functions was analyzed through a residual urine volume test and a urinary bladder function score (UBFS). At this time, a Vehicle group was administered with the same amount of a solution of DMSO, methyl pyrrolidinone, and water. Specifically, in order to determine the amount of urine remaining in the bladder after spinal cord injury, bladder extrusion was performed twice a day by applying pressure to the central bottom portion of the lower abdomen using the index and middle fingers to empty the bladder, and the expelled urine was collected in a catheter and its volume was recorded. In addition, the UBFS was assessed daily using a 0-4 point UBFS (0=total loss of function (manual bladder extrusion 3 times a day, bloody urine), 1=partial restoration of UBF (manual extrusion 2 times a day, bloody urine), 2=partial restoration of UBF (partial/complete release of sphincter spasm, manual extrusion once a day, persistently bloody urine), 3=high restoration (manual extrusion once a day, no bloody urine), and 4=normal UBF) as in the reference (Zeng et al., Spinal Cord (2017) 55:834-839).
To confirm the effect of YJ102 on the expression of inflammatory factors in the bladder after spinal cord injury, the expression of inflammatory cytokines and chemokines, COX-2, iNOS, IL-6, IL-1β, MIP-1α, MIP-1β, MIP-2a, and Gro-α in bladder tissue was confirmed by RT-PCR analysis and Western blot analysis using the primers in Table 2 above. In addition, even in the Raw 264.7 cell line, the expression was verified by RT-PCR analysis.

In another experiment the test system is ZO-1. Put plainly: Tight junction protein ZO-1 in bladder of SCI model, Western blot. In kind it is in vivo, Sprague-Dawley rats. The following applies: SCI day 1, Western blot.
For experiment [3], the system named is spleen of psoriasis mouse model. Kind of experiment: Spleen hypertrophy in IMQ psoriasis model. In kind it is in vivo, C57BL/6 mouse. The following applies: Day 6, vs Vehicle. On the procedure:
Psoriasis caused by excessive production of skin cells was a chronic skin disease associated with various factors, including autoimmune diseases, and its symptoms included red and thickened skin and abnormally occurring scaling. […] Specifically, the back region of a C57BL/6 mouse (male, 18 to 20 g, 8 weeks) (Daehan Biolink, Eumseong, Korea) was shaved to remove hair, and then applied with IMQ cream (83 mg/day) (5%) for consecutive 5 days from Day 0 to Day 4 to induce psoriasis-like skin inflammation, and a normal control mouse (Sham) was applied with Vaseline cream (FIG. 16A).
In order to confirm the effect of YJ102 (Chemical Formula 1), a compound of the present disclosure, on psoriasis, YJ102 dissolved in DMSO, methyl pyrrolidinone, and water (1:1.5:1) was administered intraperitoneally (5 mg/kg) for a total of 3 days on Day 2, Day 3, and Day 4, and the Vehicle group was administered in the same amount of a solution of DMSO, methyl pyrrolidinone, and water (1:1.5:1) (FIG. 16A). To assess daily skin changes, PASI scores were used for erythema and scaling. The PASI score was evaluated as a severity scale of 0 to 4, in which 0 meant none, 1 meant mild, 2 meant moderate, 3 meant severe, and 4 meant very severe. (PASI Reference: Yashpal Manchanda, Abhishek De, Sudip Das, and Disha Chakraborty. Disease Assessment in Psoriasis. Indian J Dermatol. 2023 May-June; 68 (3): 278-281.) […]

As for `CCc1ccc(N(C(=O)COC)c2nc3cc(Cl)ccc3o2)cc1` [YJ102], the p75 expression result with p75 (RT-PCR (mRNA)) is on record as “significantly reduced”. For the same molecule, the p75 expression entry with p75 (Western blot (protein)) is given as “significantly reduced”. Besides, the “number of TUNEL-positive cells in the urothelium” value in experiment [1] is given as “significantly reduced”. For the same molecule, in the experiment with bladder wall, the “thickness of lamina propria” value is given as “significantly reduced”, the “thickness of muscle layer” value is listed as “significantly reduced” and the “thickness of urothelium layer” value is recorded as “significantly reduced”. For the same molecule, in experiment [2], the “expression of COX-2” value is on record as “significantly reduced”, the “expression of Gro-α” value is listed as “significantly reduced”, the “expression of IL-1β” value was “significantly reduced” and the “expression of IL-6” value was “significantly reduced”. In experiment [2], the “expression of MIP-1B” value was “significantly reduced”, the “expression of MIP-1 a” value is on record as “significantly reduced”, the “expression of MIP-2a” value is “significantly reduced” and the “expression of iNOS” value is on record as “significantly reduced”. For the same molecule, in the experiment with ZO-1, the “reduction in amount of ZO-1” value is on record as “significantly inhibited”. Besides, in experiment [3], the “size of the spleen” value is listed as “significantly reduced” and the “weight of the spleen” value is on record as “significantly reduced”.

Values taken from patent US20260335293A1, “USE OF NOVEL COMPOUND FOR TREATING INTRACTABLE DISEASES” (YJ CERAPEUTICS INC., priority 2023, published 2026).
